Test results as given in patent US8772480B2, “Inhibitors of PI3 kinase and/or mTOR” (priority 2009, dated 2014).

Assays:
PI3Kα = PI3Kα (Homo sapiens (Human), UniProt P42336); conditions: read-out: PI3Kα AlphaScreen ® Ki
[1] = system: phosphorylation of Akt at Serine 473 in U87 MG cells; test: cells; conditions: Homo sapiens, U-87 MG, 2 h, read-out: U87Cell IC50, pAkt (Ser 473), U87 MG cells, two hours with compound

Sequence of PI3Kα (P42336 whole entry): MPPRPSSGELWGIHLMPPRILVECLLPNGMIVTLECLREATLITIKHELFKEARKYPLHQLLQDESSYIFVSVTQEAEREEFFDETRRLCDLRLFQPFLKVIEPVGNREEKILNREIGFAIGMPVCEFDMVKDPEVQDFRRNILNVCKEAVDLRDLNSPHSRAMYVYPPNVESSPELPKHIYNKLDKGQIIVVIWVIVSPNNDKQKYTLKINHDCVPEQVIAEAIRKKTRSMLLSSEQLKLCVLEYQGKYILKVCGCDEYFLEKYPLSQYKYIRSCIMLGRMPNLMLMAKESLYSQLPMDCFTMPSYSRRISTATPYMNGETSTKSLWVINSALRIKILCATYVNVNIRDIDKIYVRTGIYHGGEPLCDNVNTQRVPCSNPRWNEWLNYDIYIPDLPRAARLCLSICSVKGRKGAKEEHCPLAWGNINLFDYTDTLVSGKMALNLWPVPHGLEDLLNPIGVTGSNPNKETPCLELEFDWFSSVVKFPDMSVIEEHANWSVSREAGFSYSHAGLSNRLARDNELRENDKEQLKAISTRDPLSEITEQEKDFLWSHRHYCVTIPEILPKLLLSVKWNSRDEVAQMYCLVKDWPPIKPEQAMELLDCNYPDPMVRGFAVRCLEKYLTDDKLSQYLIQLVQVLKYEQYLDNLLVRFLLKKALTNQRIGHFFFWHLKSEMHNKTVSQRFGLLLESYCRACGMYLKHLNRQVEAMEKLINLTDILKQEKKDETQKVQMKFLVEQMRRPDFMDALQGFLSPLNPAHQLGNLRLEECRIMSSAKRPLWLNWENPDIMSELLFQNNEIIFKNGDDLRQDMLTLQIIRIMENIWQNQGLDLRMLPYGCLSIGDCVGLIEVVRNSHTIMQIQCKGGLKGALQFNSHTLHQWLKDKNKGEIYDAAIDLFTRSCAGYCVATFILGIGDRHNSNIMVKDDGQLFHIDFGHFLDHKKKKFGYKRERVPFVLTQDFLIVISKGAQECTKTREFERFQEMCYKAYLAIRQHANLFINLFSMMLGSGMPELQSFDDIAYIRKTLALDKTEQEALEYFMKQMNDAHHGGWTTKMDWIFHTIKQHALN
Sequence of PI3Kα (P27986 whole entry partner): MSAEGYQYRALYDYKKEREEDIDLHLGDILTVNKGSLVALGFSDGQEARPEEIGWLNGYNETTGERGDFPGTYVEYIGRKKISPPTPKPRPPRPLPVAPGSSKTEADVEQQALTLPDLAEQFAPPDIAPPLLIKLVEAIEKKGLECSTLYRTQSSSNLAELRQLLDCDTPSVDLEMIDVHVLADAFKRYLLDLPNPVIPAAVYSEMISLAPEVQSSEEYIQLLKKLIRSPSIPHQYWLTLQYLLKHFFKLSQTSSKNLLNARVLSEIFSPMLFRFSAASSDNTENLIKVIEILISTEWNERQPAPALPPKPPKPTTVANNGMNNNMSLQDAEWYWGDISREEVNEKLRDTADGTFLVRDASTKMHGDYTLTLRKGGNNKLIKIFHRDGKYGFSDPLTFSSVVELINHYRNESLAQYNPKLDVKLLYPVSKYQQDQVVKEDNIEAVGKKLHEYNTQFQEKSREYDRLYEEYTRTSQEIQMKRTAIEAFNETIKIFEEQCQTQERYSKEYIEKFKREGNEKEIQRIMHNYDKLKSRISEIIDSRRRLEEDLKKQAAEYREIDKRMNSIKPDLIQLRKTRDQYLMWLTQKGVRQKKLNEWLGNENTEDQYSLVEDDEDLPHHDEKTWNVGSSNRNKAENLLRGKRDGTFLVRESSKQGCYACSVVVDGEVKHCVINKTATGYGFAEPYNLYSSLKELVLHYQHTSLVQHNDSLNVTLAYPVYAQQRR

Row | SMILES | Ki (PI3Kα) [µM] | IC50 [1] [µM]
1 | Cc1nc(N)cc(-c2cccnc2Nc2cnc(Cl)c(NS(C)(=O)=O)c2)n1 [Example 304, N-(5-((3-(6-amino-2-methyl-4-pyrimidinyl)-2-pyridinyl)amino)-2-chloro-3-pyridinyl)methanesulfonamide] | 0.029 | 0.146
2 | COc1ccc(Nc2ncc(CN3CCN(S(C)(=O)=O)CC3)cc2-c2cc(N)nc(C)n2)cn1 [Example 178, 6-(2-(6-Methoxypyridin-3-Ylamino)-5-((4-(Methylsulfonyl)Piperazin-1-yl)Methyl)Pyridin-3-yl)-2-Methylpyrimidin-4-Amine] | 0.006 | 0.05
3 | Cc1nc(N)nc(-c2cc([C@@H](C)N3CCN(S(C)(=O)=O)CC3)cnc2Nc2cc(F)c3cccnc3c2)n1 [Example 287, (R)—N-(3-(4-Amino-6-Methyl-1,3,5-Triazin-2-yl)-5-(1-(4-(Methylsulfonyl)Piperazin-1-yl)Ethyl)Pyridin-2-yl)-5-Fluoroquinolin-7-Amine] | 0.02 | 0.204
4 | COCCNc1cnc(Nc2ccc(OC)nc2)c(-c2nc(C)nc3[nH]cnc23)c1 [Example 93, N5-(2-methoxyethyl)-N2-(6-methoxypyridin-3-yl)-3-(2-methyl-9H-purin-6-yl)pyridine-2,5-diamine] | 0.104 | 0.929
5 | COc1ncc(Nc2ncc(CN3CCN(C(=O)N(C)C)CC3)cc2-c2nc(C)nc(N)n2)cc1F [Example 159, 4-((5-(4-Amino-6-Methyl-1,3,5-Triazin-2-yl)-6-(5-Fluoro-6-Methoxypyridin-3-Ylamino)Pyridin-3-yl)Methyl)-N,N-Dimethylpiperazine-1-Carboxamide] | 0.011 | 0.011
6 | COc1ncc(Nc2ncc([C@H](C)N3CCN(S(C)(=O)=O)C[C@@H]3C)cc2-c2nc(C)nc3[nH]cnc23)cc1F [Example 296, N-(5-Fluoro-6-Methoxypyridin-3-yl)-5-((S)-1-((S)-2-Methyl-4-(Methylsulfonyl)Piperazin-1-yl)Ethyl)-3-(2-Methyl-9H-Purin-6-yl)Pyridin-2-Amine] | 0.018 | 0.051
7 | COc1ccc(Nc2ncc([C@@H](O)C(F)(F)F)cc2-c2nc(C)nc(N)n2)cn1 [Example 322, (R)-1-(5-(4-amino-6-methyl-1,3,5-triazin-2-yl)-6-(6-methoxypyridin-3-ylamino)pyridin-3-yl)-2,2,2-trifluoroethanol] | 0.086 | 0.051
8 | COc1ncc(Nc2ncc(C(C)N)cc2-c2nc(C)nc(N)n2)cc1F (stereo not drawn) [Example 327, 4-(5-(1-Aminoethyl)-2-(5-Fluoro-6-Methoxypyridin-3-Ylamino)Pyridin-3-yl)-6-Methyl-1,3,5-Triazin-2-Amine] | 0.069 | 0.146
9 | COc1ncc(Nc2ncc([C@@H](C)N3CCOCC3)cc2-c2cc(N)nc(C)n2)cc1F [Example 276, 6-(2-((5-Fluoro-6-Methoxy-3-Pyridinyl)Amino)-5-((1R)-1-(4-Morpholinyl)Ethyl)-3-Pyridinyl)-2-Methyl-4-Pyrimidinamine] | 0.017 | 0.091
10 | COc1ncc(Nc2ncc(CN3CCN4C(CCS4(=O)=O)C3)cc2-c2nc(C)nc(N)n2)cc1F (stereo not drawn) [Example 383, 4-(5-((1,1-Dioxidohexahydro-5H-Isothiazolo[2,3-A]Pyrazin-5-yl)Methyl)-2-((5-Fluoro-6-Methoxy-3-Pyridinyl)Amino)-3-Pyridinyl)-6-Methyl-1,3,5-Triazin-2-Amine] | 0.007 | 0.008
11 | COc1ncc(Nc2ncc([C@H](C)N3CCOCC3)cc2-c2nc(C)nc(N)n2)cc1F (single isomer, unassigned) [Example 292] | 0.044 | 0.02
12 | Cc1nc(N)nc(-c2cc(CN3CCN(S(C)(=O)=O)CC3)cnc2Nc2cnc3c(c2)ncn3C)n1 [Example 203, N-(3-(4-Amino-6-Methyl-1,3,5-Triazin-2-yl)-5-((4-(Methylsulfonyl)Piperazin-1-yl)Methyl)Pyridin-2-yl)-3-Methyl-3H-Imidazo[4,5-B]Pyridin-6-Amine] | 0.016 | 0.562
